Measured values reported in patent US20090258786A1, “Controlled release agricultural products and processes for making the same” (priority 2000, published 2009).

Assay: Controlled release soil test (irrigated soil burial test)
Type: physicochemical
Source text: To measure the relative solubilities of the products in soil, an irrigated soil burial test was devised such that granules could be retrieved for measurement of their nitrogen content. The following is a description of the test.
Procedure for Controlled Release Soil Test
1. Screen the sample to obtain −6+7 Tyler mesh granules for the test.
4. Place 300 g of potting soil with a 40% moisture content into the container and record the weight.
7. Spread 5 grams of −6+7 Tyler mesh granules over the screen in a single layer and record the weight.
13. Mist 4 g of water into each container and immediately place the lid on container and seal.
14. After the fertilizer granules have been submerged in a humid soil environment for the allotted time (9 hours, 24 hours, and 3 days), the 150 g of soil is removed from the container.
18. Place the fertilizer granules in a laboratory oven to dry at low temperature (50° C.) for 13 hours.
20. Place the dry fertilizer sample into a 125 mL plastic sample bottle containing 20 g of de-ionized water.
21. Allow the sample to dissolve for 3 hours.
22. Place approximately 1 ml aliquot of the sample solution onto the sample stage of a refractometer(e.g., Abbe Refractometer).
23. Record the refractive index and temperature of the solution.
24. Calculate the percent urea retained from the original fertilizer sample.

time in which particles went into solution, soil test: ≤ 9 h
SMILES: NC(N)=O [plain urea, urea]
